# “Also recorded” adds a separate entry of the source.
# Tests used:
# [1] = tested on: LAD2 cells; experiment: Mitochondria-induced degranulation (beta-hex release) after P2X7 receptor inhibitor pre-treatment; assay type: cell-based, human; settings: pre-incubation 30 min; beta-hex release 30 min after stimulation
# Method: FIG. 10 illustrates that mt component activation of LAD2 cells is P2X7-receptor-dependent. LAD2 cells were pre-treated with P2X7 receptor inhibitor for 30 min and then stimulated with mt components. Different concentration of CpG-ODN [ISOLATED fomyl-peptides?] was used to stimulated LAD2 cells (FIG. 10A). LAD2 cells were treated with a P2X7 receptor inhibitor (FIG. 10B). Beta-hex release was measured 30 mins after stimulation. (n=3; *p<0.05, compared to control). FIG. 10C: live LAD2 cells were stained with stained with Fura-2to measure intracellular calcium changes in response to different concentrations of mt components.
# We then investigated which components from sonicated mitochondria may activate LAD2 cells. ATP has been reported to stimulated human mast cell degranulation (Cohen et al., 2001, Biochemistry 40:6589-97). Therefore, we tested if inhibition of P2X7 receptors, the primary receptor of ATP, can block the effects of mitochondrial components.
# [2] = tested on: rat mast cells; settings: rat mast cells (Sengoku 2000); cited from earlier work
# [3] = tested on: mouse model of AD; settings: mouse model of AD (Inagaki 2010); cited from earlier work
# [4] = tested on: peripheral sensory neurons; settings: Inagaki 2010; cited from earlier work
# [5] = tested on: LAD2 cells; experiment: SP-triggered beta-hexosaminidase release (degranulation index); assay type: cell-based, human; settings: MDIVI-1 40 μM pretreatment; SP 1 and 2 μM, vs SP alone
# Method: (§1) FIG. 2 illustrates that SP-stimulated degranulation and pre-stored TNF secretion is blocked by the mitochondrial fission protein Drp1 inhibitor (MDIVI-1) and Drp1-silencing siRNA. LAD2 cells were treated with MDIVI-1 (40 μM) for 15 min at 37° C. FIG. 2A: Mitochondrial morphology was evaluated by Confocal microscopy in normal LAD2 cells with or without stimulation with SP (2 μM, 30 min, 37° C.). Left panels represent granules; middle panels show mitochondria and the right panels are merged from the previous two. The images shown are representative of more than 40 cells studied. […] LAD2 cells were pretreated with MDIVI-1 (40 μM) for 30 min and then stimulated with SP (1 or 2 μM) for 30 min at 37° C. β-hexosaminidase was measured spectrophotometrically and TNF was measured by ELISA.
# (§2) In order to rule out the possibility that mitochondrial translocation at the cell surface is a bystander effect secondary to cell shape changes during degranulation, the function of Drp1 in mast cell degranulation was investigated. Pretreatment of LAD2 mast cells with the mitochondria] Drp1 inhibitor MDIVI-1 at 40 μM for 15 min at 37° C. (Cassidy-Stone, et al. 2008, Dev. Cell 14:193-204) inhibited mitochondrial translocation (FIG. 2A) despite addition of SP (2 μM for 30 min).
# [6] = tested on: LAD2 cells; experiment: Pre-stored TNF secretion measured by ELISA; assay type: cell-based, human; settings: MDIVI-1 40 μM pretreatment; SP 1 and 2 μM, vs SP alone
# Method: as §1, §2
# [7] = tested on: LAD2 cells; experiment: Mitochondrial translocation in live mast cells by confocal microscopy (MitoTracker/LysoTracker); assay type: cell-based, human
# Method: LAD2 cells, mast cells derived from a human leukemia patient,were stained with MitoTracker probe (20 nM) for 20 min (middle panels) and LysoTracker DND probe (50 nM) for 30 min (left panels). The cells were then moved to glass bottom culture dishes and observed by TSC SP2 Confocal microscopy. […] The left panels show granules in green. The middle panels represent mitochondria florescence. The right panels represent images merged from the two previous panels. […] Merged images (as described above) of 100 cells randomly selected from each experiment (n=3) are scored by three different operators each time. […] Confocal images from 19 resting cells and 20 degranulating cells (SP 2 μM, 30 min) were randomly selected for analysis. Mitochondria numbers were calculated by ImageJ software using a “mitochondria calculator” plugin.
# as §1
# Very few mitochondria could be found in the cell surface region. It is almost impossible to distinguish individual mitochondria from this pool by confocal microscopy. Since the average pH of mast cell secretory granules is 5.5, LysoTracker (left panels) was used as a dye to stain the granules. After SP (2 μM) stimulation for 30 min at 37° C., mast cells underwent rapid degranulation, during which mitochondrial particles translocate throughout the cell (FIG. 1A). […]
# [8] = tested on: Drp1; experiment: Western blot of Drp1 phosphorylation at Ser-616; assay type: cell-based, human; settings: SP 2 μM for 30 min, LAD2 mast cells
# Source text: Antibodies against the Ser-616 phosphorylated form of Drp1 was purchased from Cell Signaling based in Massachusetts, USA.
# To confirm the involvement of Drp1, the State of phosphorylation of Drp1 at the amino acid serine-616 (Ser-616) was investigated through western blot analysis.
# [9] = tested on: murine mast cell line and isolated murine peritoneal mast cells; settings: SP 0.01 to 1 μM; not IL-1, IL-3, IL-4, IL-6 or GM-CSF; cited from earlier work
# [10] = tested on: LAD2 cells; experiment: ATP and Cytochrome C in supernatant fluid of stimulated cells; assay type: cell-based, human; settings: SP-stimulated LAD2 cells
# [11] = tested on: human skin mast cells; experiment: Transmission electron microscopy of mitochondria in skin mast cells; assay type: cell-based
# Source text: Mitochondria are shown within white rectangles. White asterisks represent released granular materials. FIG. 5B charts the number of mitochondria visible under electron microscope and FIG. 5C charts the percentage of mitochondria close to the cell surface in each cell as semi-quantitated from high magnification glossy prints by three independent operators. Magnification: 13,800×; (n=3; *p<0.05 compared to control).
# Observations using Transmission Electron Microscopy (TEM) (Theoharides, et al. 1998, Endocrinology 139:403-13) indicate translocation of mitochondria particles to sites of exocytosis. Mitochondria of unstimulated human skin mast cells are located around the cell nucleus and appear intact (FIG. 5A, left side). On the contrary, mitochondria of activated mast cells are much smaller than mitochondria from control cells and are located close to secretory granules undergoing exocytosis (FIG. 5A, right side).
# [12] = tested on: human skin mast cells; settings: cited from earlier work
# [13] = tested on: LAD2 cells; settings: SP 1 or 2 μM for 30 min (Kulka 2007); cited from earlier work
# [14] = tested on: LAD2 cells; experiment: mtDNA (Mt-7s, Mt-CytB) in supernatant fluid by real-time PCR; assay type: cell-based, human; settings: 10 μM SP, 60 minutes
# Method: Cell viability (D) was measured by Tulubin-Blue staining.
# The amount of these two genes, MT-7s DNA and MT-CytB, which are unique to mtDNA and not present in regular human genomic DNA, increased 200 times in SP-stimulated cells (10 μM SP) compared with that in the control as detected by real-time PCR (FIG. 7A). In contrast, genomic DNA for glyceraldehyde 3-phosphate dehydrogenase (GAPDH) is not detected (Hu, VIC TAMRA, data not shown).
# [15] = tested on: isolated cardiac cell mitochondria; settings: SP concentrations higher than 1 μM; cited from earlier work
smiles,measurement,setting,value
Cl.Clc1cccc(-c2nnnn2Cc2cccnc2)c1Cl.O [A-438079 hydrochloride hydrate],block of mitochondria-induced degranulation,[1],40%
"C=CC[C@@H]1/C=C(\C)C[C@H](C)C[C@H](OC)[C@H]2O[C@@](O)(C(=O)C(=O)N3CCCC[C@H]3C(=O)O[C@H](/C(C)=C/[C@@H]3CC[C@@H](O)[C@H](OC)C3)[C@H](C)[C@@H](O)CC1=O)[C@H](C)C[C@@H]2OC [FK506, tacrolimus]",secretion of IgE-induced histamine,[2],inhibit
same,pruritus,[3],prevent
same,SP content of peripheral sensory neurons,[4],deplete
COc1cc(-n2c(=S)[nH]c3ccccc3c2=O)c(Cl)cc1Cl [MDIVI-1],SP-triggered β-hexosaminidase release,[5],significantly inhibited; also recorded: significant inhibition
same,secretion of pre-stored TNF,[6],significantly inhibited
same,mitochondrial translocation,"[7]; MDIVI-1 40 μM pretreatment 15 min, 37° C., SP 2 μM for 30 min",inhibited
"CSCC[C@H](NC(=O)[C@H](CC(C)C)NC(=O)CNC(=O)[C@H](Cc1ccccc1)NC(=O)[C@H](Cc1ccccc1)NC(=O)[C@H](CCC(N)=O)NC(=O)[C@H](CCC(N)=O)NC(=O)[C@@H]1CCCN1C(=O)[C@H](CCCCN)NC(=O)[C@@H]1CCCN1C(=O)[C@@H](N)CCCNC(=N)N)C(N)=O [SP, Substance P]",Drp1 phosphorylation at Ser-616,[8],Drp1 phosphorylation
same,gene expression and release of cytokines,[9],induce selective gene expression and release of TNF
same,Cytochrome C (Cyt C) in supernatant fluid,[10],marked increase
same,ATP level in supernatant fluid,[10]; dosage-dependent on SP,marked increase
same,number of mitochondria visible under the electron microscope,[11]; SP-activated skin mast cells vs control,increased significantly
same,percentage of mitochondria translocated close to cell surface,"[11]; SP-activated skin mast cells, control 25%",75%
same,increase in percentage of mitochondria translocated close to cell surface,[11]; SP-activated vs control (25% to 75%),200%
same,de novo TNF gene expression and release,[12]; SP 0.3-30 μM (Okayama 1998),selectively induced only de novo TNF gene expression and release
same,histamine and TNF release,[12]; SP 0.8-100 ηM,induced histamine and de novo synthesized TNF release
same,degranulation of pre-stored TNF,[13],activates degranulation
same,percentage of LAD2 cells containing mitochondria undergoing translocation,"[7]; SP 2 μM, 30 min, 37° C., 20% in control cells",about 55%
same,number of mitochondria close to the cell surface,"[7]; after SP stimulation (2 μM, 30 min), ImageJ count",significant increase
same,"amount of MT-7s DNA and MT-CytB in supernatant, increase vs control",[14],200 times
same,rate of oxygen consumption,[15],enhance

# From US20130337453A1, “EXTRACELLULAR MITOCHONDRIA-BASED SCREENING AND TREATMENT” (TUFTS UNIVERSITY, priority 2010, published 2013)
